Read-outs that look alike come from different tables or passages of the source.

For one data set, the system named is 22Rv1 cells. Briefly: 22Rv1 cell viability (CCK-8) antiproliferation assay. Format: cell-based, human. Conditions: for IC50: 22Rv1 cells, means of two independent experiments (n = 2). As to the method: The 22Rv1 prostate cancer cell line in this study was purchased from KeyGEN Biotech Co. Ltd. (Nanjing, Jiangsu, China ). The cells were cultured in RPMI 1640 medium and maintained at 37 °C in a 5% CO2 incubator. For the cell viability assay, the cell slurry was diluted to required volume at a density of 80,000 cells/mL. Then, 100 μL the cell slurry was seeded in each well of the 96-well plate. The cells were incubated for 72 h at 37 °C, 5% CO2 under humidified condition. The reference and test compounds solution (200×) were prepared with DMSO and were diluted from 200× to 1× with culture medium (RPMI 1640 medium without phenol red and containing 10% fetal calf serum, penicillin (100U/mL), streptomycin (100 μg/mL) and 0.1 nM DHT). The previous culture medium was removed and 200 μL/well of the compound solution (1×) was added to assay plate (final conc: 1×). Then the cells were incubated at 37 °C, 5% CO2 under humidified conditions. 5 Days later, the CCK-8 assay reagent was equilibrated at room temperature for 30 min prior to use. CCK-8 was mixed with fresh medium at a ratio of 1:10 and 100 μL of the diluted CCK8 reagent was added to each well and the plates were incubated for 4.5 h at 37 °C. Finally, absorbance value (OD value) was read on plate reader. GraphPad Prism v5.0 software was used to process data for IC50.

A short description of data set [1]: Pharmacokinetics in male Balb/C mice (IV and PO). The class given is in vivo. As to conditions: mouse, plasma; for clearance: n = 3, read-out: CL (clearance) (converted); for Vd: n = 3, read-out: V ss (0–24 h) (volume of distribution at steady state); for bioavailability: PO. 10 mg/kg vs IV. 1 mg/kg, n = 3, read-out: F (oral bioavailability); for Cmax: n = 3, Table 3, read-out: Cmax (maximum concentration observed). As to the method: Pharmacokinetic experiments of test compounds were performed in male Balb/C mice similarly to our previous work. The mice were randomly assigned to two groups and were administrated the test compound orally and intravenously, respectively. The test compounds were prepared into 0.5 mg/mL oral solution with 10%PG, 10% ethanol, 10% solutol and 70% normal saline, or 0.1 mg/mL injection solution with 2% PG, 2% ethanol, 2% solutol and 94% normal saline. After intravenous or oral administration, blood was collected from the orbital venous plexus into heparinized EP tube (0.6 mL) at 5, 15, 30 min, 1, 2, 6, 10, and 24 h, temporarily placed on crushed ice. Certain processing was performed on blood samples and testing samples were sent to LC-MS/MS for analysis.

The mark [2] stands for this setting: IV. 1 mg/kg, n = 3, read-out: AUC(0–24h).
Where [3] appears, read: IV. 1 mg/kg, n = 3, read-out: T1/2 (half-life) (converted).
Setting [4] is: PO. 10 mg/kg, n = 3, Table 3, read-out: AUC (0–24 h).
The mark [5] stands for this setting: PO. 10 mg/kg, n = 3, Table 3, read-out: T1/2 (converted).

On to `CNC(=O)Cn1cc(-c2ccc3c(c2)CCC32OC(=O)N(CC(=O)N(Cc3ccc(F)cc3)[C@H]3CCc4cccnc43)C2=O)cn1` (stereo partly drawn) [B8, N-((S)-6,7-Dihydro-5H-cyclopenta[b]pyridin-7-yl)-N-(4-fluorobenzyl)-2-(5-(1-(2-(methylamino)-2-oxoethyl)-1H-pyrazol-4-yl)-2′,4′-dioxo-2,3-dihydrospiro[indene-1,5′-oxazolidin]-3′-yl)acetamide], for which the IC50 in the data set with 22Rv1 cells (Homo sapiens, Table 2) was 153 nM. In addition, the AUC(0-t) in data set [1] (setting [2]) amounted to 766 ± 71.2 ng·h/mL; in data set [1] (setting [4]), 1660 ± 294 ng·h/mL. For the same compound, in data set [1] (IV. 1 mg/kg), the clearance was 18.3 mL/min/kg. Also, the half-life in data set [1] (setting [3]) is 1020 ± 294 min; in data set [1] (setting [5]), 1430 ± 216 min. Further, in data set [1] (IV. 1 mg/kg), the Vd amounted to 13.2 ± 4.2 L/kg. Besides, the bioavailability in data set [1] is 21.6 ± 3.8%. For the same compound, the Cmax in data set [1] (PO. 10 mg/kg) came out at 878 ± 94.3 ng/mL.
Take `CNC(=O)Cn1cc(-c2ccc3c(c2)CCC32OC(=O)N(CC(=O)N(Cc3ccc(F)cc3)[C@H]3CCOc4ccccc43)C2=O)cn1` (stereo partly drawn) [B16, N-((S)-chroman-4-yl)-N-(4-fluorobenzyl)-2-(5-(1-(2-(methylamino)-2-oxoethyl)-1H-pyrazol-4-yl)-2′,4′-dioxo-2,3-dihydrospiro[indene-1,5′-oxazolidin]-3′-yl) acetamide]: in the data set on 22Rv1 cells (22Rv1 cell antiproliferation), the “fold more potency than A-485” value was found to be 2 fold. Further, in the data set with 22Rv1 cells (Homo sapiens, Table 2), the IC50 was 96 nM. The AUC(0-t) worked out at 536 ± 18.1 ng·h/mL in data set [1] (setting [2]) and 1780 ± 158 ng·h/mL in data set [1] (setting [4]). Also, the clearance in data set [1] (IV. 1 mg/kg) was 30 mL/min/kg. Further, the half-life in data set [1] (setting [3]) is 30 min; in data set [1] (setting [5]) it was 96 ± 18 min. Further, the Vd in data set [1] (IV. 1 mg/kg) came out at 1 ± 0.1 L/kg. Also, the bioavailability in data set [1] is 33.2 ± 3%. In data set [1] (PO. 10 mg/kg), the Cmax came out at 759 ± 76.5 ng/mL.
The compound “N-(4-Fluorobenzyl)-2-(3-(1-(2-(methylamino)-2-oxoethyl)-1H-pyrazol-4-yl)-2′,4′-dioxo-5,6-dihydrospiro[cyclopenta[b]pyridine-7,5′-oxazolidin]-3′-yl)-N-((S)-1,1,1-trifluoropropan-2-yl)acetamide [A5]” returned an IC50 in the data set with 22Rv1 cells (Table 1) of 16100 nM.

For orientation: IC50 means the concentration that inhibits the measured activity by half. A high value points to weaker potency. The bioavailability is the share of a dose that reaches the circulation, judged against a reference dose that is usually intravenous.

Values taken from PMC8198214, “Synthesis and Biological Evaluation of Spirocyclic Chromane Derivatives as a Potential Treatment of Prostate Cancer” (Molecules, 2021).
